Values joined by “and” are separate entries in the source; they are usually repeats but may differ in a detail not shown here. Equal entries are not always repeated. Active and inactive are the calls of the source. No cut-off for these calls is given here.
What was measured:
[1] = Clearance in Sprague-Dawley rat at 50 mg/kg, po measured upto 480 mins by LC-MS/MS analysis; format: ADME, organism-based; conditions: in vivo
[2] = Cmax in Sprague-Dawley rat at 20 mg/kg, iv measured upto 480 mins by LC-MS/MS analysis; format: ADME, organism-based; parameters: dose 20 mg/kg, route intravenous; conditions: in vivo
Mus musculus [3] = assay: Anticonvulsant activity in Kunming mouse assessed as reduction in ScPTZ-induced tonic seizure rate at 300 mg/kg, ip administered 0.5 hrs before ScPTZ stimulation relative to control; format: functional; parameters: scale not given: the % may be the effect or the level left
Homo sapiens [4] = organism: Homo sapiens; assay: Inhibition of human LDH1 at 0.5 mM using sodium pyruvate as substrate by UV-VIS spectrophotometry method relative to control
[5] = AUC in Sprague-Dawley rat at 50 mg/kg, po measured upto 480 mins by LC-MS/MS analysis; format: ADME, organism-based; parameters: time < 8 hr, dose 50 mg/kg, route oral; conditions: in vivo
Mus musculus [6] = assay: Anticonvulsant activity in Kunming mouse assessed as reduction in ScPTZ-induced seizure at 100 mg/kg, ip administered 0.25 to 2 hrs before ScPTZ stimulation relative to control; format: functional; parameters: scale not given: the % may be the effect or the level left
Homo sapiens [7] = organism: Homo sapiens; assay: Inhibition of human LDH5 at 0.5 mM using sodium pyruvate as substrate measured for 60 sec for every 5 mins by LC/MS-MS analysis
Mus musculus [8] = assay: Anticonvulsant activity in Kunming mouse assessed as MES-induced hind limb extension at 50 mg/kg, ip administered 0.5 and 2 hrs before MES stimulation relative to control; format: functional
[9] = (§1) Protective index, ratio of TD50 for neurotoxicity against ip dosed Kunming mouse assessed as time remained in rod measured at 0.5 hrs by rotarod test to ED50 for […] activity in ip dosed Kunming mouse assessed as reduction in formalin-induced paw licking administered 0.5 hrs before formalin stimulation; format: toxicity, organism-based; conditions: in vivo, read-out: PI
Mus musculus [10] = assay: Anticonvulsant activity in ip dosed Kunming mouse assessed as MES-induced hind limb extension administered 0.5 hrs before MES stimulation; format: functional
Mus musculus [11] = assay: Anticonvulsant activity in Kunming mouse assessed as MES-induced hind limb extension at 100 mg/kg, ip administered 0. 5 to 4 hrs before MES stimulation relative to control; format: functional
Mus musculus [12] = assay: Anticonvulsant activity in ip dosed Kunming mouse assessed as reduction in ScPTZ-induced seizure administered 0.5 hrs before ScPTZ stimulation; format: functional
[13] = AUC in Sprague-Dawley rat at 20 mg/kg, iv measured upto 480 mins by LC-MS/MS analysis; format: ADME, organism-based; parameters: time < 8 hr, dose 20 mg/kg, route intravenous; conditions: in vivo
[14] = AUC in Sprague-Dawley rat at 20 mg/kg, po measured upto 480 mins by LC-MS/MS analysis; format: ADME, organism-based; parameters: time < 8 hr, dose 20 mg/kg, route oral; conditions: in vivo
Mus musculus [15] = assay: Anticonvulsant activity in Kunming mouse assessed as reduction in Sc3-MP-induced seizure at 300 mg/kg, ip administered 0.25 and 1 hrs before Sc3-MP stimulation relative to control; format: functional, organism-based
[16] = Half life in Sprague-Dawley rat at 20 mg/kg, po measured upto 480 mins by LC-MS/MS analysis; format: ADME, organism-based; conditions: in vivo
[17] = AUC in Sprague-Dawley rat at 100 mg/kg, po measured upto 480 mins by LC-MS/MS analysis; format: ADME, organism-based; parameters: dose 100 mg/kg, time < 8 hr, route oral; conditions: in vivo
[18] = Clearance in Sprague-Dawley rat at 20 mg/kg, po measured upto 480 mins by LC-MS/MS analysis; format: ADME, organism-based; conditions: in vivo
[19] = Oral bioavailability in Sprague-Dawley rat at 100 mg/kg measured upto 480 mins by LC-MS/MS analysis; format: ADME, organism-based; conditions: in vivo
Mus musculus [20] = assay: […] activity in ip dosed Kunming mouse assessed as reduction in formalin-induced paw licking administered 0.5 hrs before formalin stimulation; format: functional
[21] = Tmax in Sprague-Dawley rat at 100 mg/kg, po measured upto 480 mins by LC-MS/MS analysis; format: ADME, organism-based; conditions: in vivo
[22] = Cmax in Sprague-Dawley rat at 50 mg/kg, po measured upto 480 mins by LC-MS/MS analysis; format: ADME, organism-based; parameters: dose 50 mg/kg, route oral; conditions: in vivo
[23] = Volume of distribution at steady state in Sprague-Dawley rat at 100 mg/kg, po measured upto 480 mins by LC-MS/MS analysis; format: ADME, organism-based; conditions: in vivo, 8 h
[24] = Oral bioavailability in Sprague-Dawley rat at 20 mg/kg measured upto 480 mins by LC-MS/MS analysis; format: ADME, organism-based; conditions: in vivo
[25] = as §1, with “Sc3-MP-induced seizure” for “formalin-induced paw licking”, “Sc3-MP” for “formalin”; format: toxicity, organism-based; conditions: in vivo, read-out: PI
[26] = Neurotoxicity against ip dosed Kunming mouse assessed as time remained in rod measured at 0.5 hrs by rotarod test; format: toxicity, organism-based; conditions: in vivo
Mus musculus [27] = assay: Anticonvulsant activity in Kunming mouse assessed as reduction in ScPTZ-induced seizure at 100 mg/kg, ip administered 0.25 and 1 hrs before ScPTZ stimulation relative to control; format: functional; parameters: scale not given: the % may be the effect or the level left
Mus musculus [28] = assay: Anticonvulsant activity in Kunming mouse assessed as reduction in Sc3-MP-induced seizure at 300 mg/kg, ip administered 0.5 hrs before Sc3-MP stimulation relative to control; format: functional; parameters: scale not given: the % may be the effect or the level left
Homo sapiens [29] = organism: Homo sapiens; assay: Inhibition of human LDH5 at 0.5 mM using sodium pyruvate as substrate by UV-VIS spectrophotometry method relative to control
[30] = Volume of distribution at steady state in Sprague-Dawley rat at 20 mg/kg, po measured upto 480 mins by LC-MS/MS analysis; format: ADME, organism-based; conditions: in vivo, 8 h
Mus musculus [31] = assay: Anticonvulsant activity in Kunming mouse assessed as reduction in Sc3-MP-induced clonic seizure rate at 300 mg/kg, ip administered 0.5 hrs before Sc3-MP stimulation relative to control; format: functional; parameters: scale not given: the % may be the effect or the level left
[32] = Volume of distribution at steady state in Sprague-Dawley rat at 20 mg/kg, iv measured upto 480 mins by LC-MS/MS analysis; format: ADME, organism-based; conditions: in vivo, read-out: Vdss
[33] = Protective index, ratio of TD50 for neurotoxicity against ip dosed Kunming mouse assessed as time remained in rod measured at 0.5 hrs by rotarod test to ED50 for anticonvulsant activity in ip dosed Kunming mouse assessed as MES-induced hind limb extension administered 0.5 hrs; format: toxicity, organism-based; conditions: in vivo, read-out: PI
Mus musculus [34] = assay: Anticonvulsant activity in Kunming mouse assessed as MES-induced hind limb extension at 50 mg/kg, ip administered 0.5 to 4 hrs before MES stimulation relative to control; format: functional
[35] = Oral bioavailability in Sprague-Dawley rat at 50 mg/kg measured upto 480 mins by LC-MS/MS analysis; format: ADME, organism-based; conditions: in vivo
[36] = Clearance in Sprague-Dawley rat at 20 mg/kg, iv measured upto 480 mins by LC-MS/MS analysis; format: ADME, organism-based; conditions: in vivo
[37] = Half life in Sprague-Dawley rat at 50 mg/kg, po measured upto 480 mins by LC-MS/MS analysis; format: ADME, organism-based; conditions: in vivo
[38] = Cmax in Sprague-Dawley rat at 100 mg/kg, po measured upto 480 mins by LC-MS/MS analysis; format: ADME, organism-based; parameters: dose 100 mg/kg, route oral; conditions: in vivo
[39] = Tmax in Sprague-Dawley rat at 20 mg/kg, po measured upto 480 mins by LC-MS/MS analysis; format: ADME, organism-based; conditions: in vivo
[40] = Clearance in Sprague-Dawley rat at 100 mg/kg, po measured upto 480 mins by LC-MS/MS analysis; format: ADME, organism-based; conditions: in vivo
[41] = as §1, with “ScPTZ-induced seizure” for “formalin-induced paw licking”, “ScPTZ” for “formalin”; format: toxicity, organism-based; conditions: in vivo, read-out: PI
[42] = Volume of distribution at steady state in Sprague-Dawley rat at 50 mg/kg, po measured upto 480 mins by LC-MS/MS analysis; format: ADME, organism-based; conditions: in vivo, 8 h

COc1cc(OC)c(OC)cc1/C=C/COC(=O)/C=C/c1cc(OC)c(OC)c(OC)c1OC
CL/F [1]: 480 mL/min/kg
Cmax [2]: 6220 ng/mL
Activity (Mus musculus [3]): 0%
inhibition (Homo sapiens [4]): 18%
AUC at 8 h [5]: 2310 ng·h/mL
Activity (Mus musculus [6]): 25%
inhibition (Homo sapiens [7]): 15%
Activity (Mus musculus [8]): 75%
selectivity ratio at 0.5 h [9]: 23.7
ED50 (Mus musculus [10]): 65.1 µmol/kg and 30.9 mg/kg
Activity (Mus musculus [11]): 25 - 100%
ED50 (Mus musculus [12]): 155 mg/kg and 327 µmol/kg
AUC at 8 h [13]: 2940 ng·h/mL
AUC at 8 h [14]: 1210 ng·h/mL
Activity (Mus musculus [15]): Active
half-life [16]: 55.8 min
AUC at 8 h [17]: 5110 ng·h/mL
CL/F [18]: 390 mL/min/kg
bioavailability [19]: 34.8%
ED50 (Mus musculus [20]): 42.2 mg/kg and 89 µmol/kg
Tmax [21]: 36.2 min
Cmax [22]: 1890 ng/mL
Vdss [23]: 9.98 L/kg
bioavailability [24]: 41.3%
selectivity ratio at 0.5 h [25]: > 5.3
TD50 at 0.5 h [26]: > 2110 µmol/kg and > 1000 mg/kg
Activity (Mus musculus [27]): 75%
Activity (Mus musculus [28]): 50%
inhibition (Homo sapiens [29]): 15%
Vdss [30]: 8.94 L/kg
Activity (Mus musculus [31]): 100%
Vd [32]: 1.98 L/kg
selectivity ratio at 0.5 h [33]: > 32.4
Activity (Mus musculus [34]): 50%
bioavailability [35]: 31.4%
clearance [36]: 160 mL/min/kg
half-life [37]: 58.5 min
Cmax [38]: 3770 ng/mL
Tmax [39]: 35.2 min
CL/F [40]: 560 mL/min/kg
selectivity ratio at 0.5 h [41]: > 6.4
Vdss [42]: 9.26 L/kg

COc1cc(OC)c(OC)cc1/C=C/COC(=O)/C=C/c1c(OC)cc(OC)c(OC)c1OC
CL/F [1]: 450 mL/min/kg
Cmax [2]: 6480 ng/mL
Activity (Mus musculus [3]): 25%
inhibition (Homo sapiens [4]): 21%
AUC at 8 h [5]: 2610 ng·h/mL
Activity (Mus musculus [6]): 25%
inhibition (Homo sapiens [7]): 27%
Activity (Mus musculus [8]): 75%
selectivity ratio at 0.5 h [9]: 21.6
ED50 (Mus musculus [10]): 71.4 µmol/kg and 33.9 mg/kg
Activity (Mus musculus [11]): 25 - 100%
ED50 (Mus musculus [12]): 154 mg/kg and 326 µmol/kg
AUC at 8 h [13]: 3000 ng·h/mL
AUC at 8 h [14]: 1300 ng·h/mL
Activity (Mus musculus [15]): Active
half-life [16]: 57.9 min
AUC at 8 h [17]: 5480 ng·h/mL
CL/F [18]: 380 mL/min/kg
bioavailability [19]: 36.5%
ED50 (Mus musculus [20]): 46.3 mg/kg and 97.6 µmol/kg
Tmax [21]: 38.8 min
Cmax [22]: 2040 ng/mL
Vdss [23]: 11.26 L/kg
bioavailability [24]: 43.4%
selectivity ratio at 0.5 h [25]: 4.6
TD50 at 0.5 h [26]: 1970 µmol/kg and 936 mg/kg
Activity (Mus musculus [27]): 75%
Activity (Mus musculus [28]): 50%
inhibition (Homo sapiens [29]): 27%
Vdss [30]: 9.86 L/kg
Activity (Mus musculus [31]): 100%
Vd [32]: 2.14 L/kg
selectivity ratio at 0.5 h [33]: 27.7
Activity (Mus musculus [34]): 50%
bioavailability [35]: 34.8%
clearance [36]: 140 mL/min/kg
half-life [37]: 59.2 min
Cmax [38]: 3980 ng/mL
Tmax [39]: 37.1 min
CL/F [40]: 520 mL/min/kg
selectivity ratio at 0.5 h [41]: 6.1
Vdss [42]: 10.17 L/kg
